Each structure is given as a SMILES string. The source made the active and inactive calls. The rule behind the calls is not given here.

By inhibition is commonly meant how much of the control response was suppressed.

Data set [1] in a line: Inhibition of Th17 cells differentiation in C57BL/6 mouse spleen CD4+ve Th cells assessed as decrease in IL-17A production at 10 uM measured after 4 days by flow cytometry analysis. It counts as functional. As to conditions: C57BL/6, CD4+ve Th, 96 h, time 4 day. Background: In flow cytometry, cells or beads pass a laser one at a time.
Another data set has as its system CD4+ve Th. The data set can be described thus: Inhibition of Th17 cells differentiation in C57BL/6 mouse spleen CD4+ve Th cells assessed as decrease in IL-17A production at high concentrations measured after 4 days by flow cytometry analysis. It counts as functional, cell-based. As to conditions: time 4.0 day.
Data set [2] in a line: Inhibition of Th17 cells differentiation in C57BL/6 mouse spleen CD4+ve Th cells assessed as decrease in IL-17A production at 10 uM measured after 4 days by flow cytometry analysis (reference value: 23%). It counts as functional. As to conditions: C57BL/6, CD4+ve Th, 96 h, time 4 day.
Data set [3] can be described thus: Inhibition of Th17 cells differentiation in C57BL/6 mouse spleen CD4+ve Th cells assessed as decrease in IL-17A production at 10 uM measured after 4 days by flow cytometry analysis (reference value: 28%). As to conditions: C57BL/6, CD4+ve Th, 96 h, time 4 day. The class given is functional.
Data set [4] is described as follows: Inhibition of Th1 cells differentiation in C57BL/6 mouse spleen CD4+ve Th cells assessed as decrease in IFNgamma production at 10 uM measured after 4 days by flow cytometry analysis (reference value: 41%). The class given is functional. As to conditions: C57BL/6, CD4+ve Th, 96 h, time 4 day.
The next data set deals with Mus musculus. As to the kind of experiment: Immunosuppressive activity in MOG 35-55 residues/pertussis toxin-immunized autoimmune encephalomyelitis C57BL/6 mouse model assessed as suppression of disease progression by measuring clinical cumulative score at 100 mg/kg,po administered daily from day 3 measured for 21 days. The class given is functional, organism-based. As to conditions: time 21.0 day.

Data set [5] in a line: Toxicity in MOG 35-55 residues/pertussis toxin-immunized autoimmune encephalomyelitis C57BL/6 mouse model assessed as change in body weight at 100 mg/kg,po administered daily from day 3 measured for 21 days. It counts as organism-based. As to conditions: in vivo, 504 h, time 21 day.

`C[C@H]1[C@@H](SC(=O)CCCC[C@H]2CCSS2)O[C@@H]2O[C@@]3(C)CC[C@H]4[C@H](C)CC[C@@H]1[C@@]24OO3`: in data set [1], the inhibition at 10 µM is less than 6%. In addition, the inhibition entry with CD4+ve Th was “Active”.
In the case of `C[C@H]1[C@@H](S)O[C@@H]2O[C@@]3(C)CC[C@H]4[C@H](C)CC[C@@H]1[C@@]24OO3`, the inhibition at 10 µM in data set [2] was 12%.
For the compound `C[C@@H]1CC[C@H]2C(C)(C)[C@@H](OC(=O)Nc3ccc(OC(F)(F)F)cc3)O[C@@H]3O[C@@]4(C)CC[C@@H]1[C@]32OO4`, the inhibition at 10 µM in data set [1] was less than 6%. In addition, the inhibition result in the data set on CD4+ve Th was “Active”.
Consider `C[C@@H]1CC[C@H]2[C@@](C)(F)[C@@H](OC(=O)Nc3ccc(OC(F)(F)F)cc3)O[C@@H]3O[C@@]4(C)CC[C@@H]1[C@]32OO4`, for which the inhibition at 10 µM in data set [1] is less than 6%. Further, the inhibition result with CD4+ve Th was “Active”.
The like results for `C[C@H]1[C@@H](SC(=O)Nc2ccc(OC(F)(F)F)cc2)O[C@@H]2O[C@@]3(C)CC[C@H]4[C@H](C)CC[C@@H]1[C@@]24OO3` were, in that order, less than 6% and “Active”.
Turning to `C[C@H]1[C@@H](OC(=O)CCCC[C@H]2CCSS2)O[C@@H]2O[C@@]3(C)CC[C@H]4[C@H](C)CC[C@@H]1[C@@]24OO3`, the results for the inhibition at 10 µM in data set [3] and in data set [4] were 8% and 3%, respectively. Further, the result in the data set with Mus musculus was Active. Moreover, the Activity entry in data set [5] is listed as “Toxic”.
In the case of `C[C@@H]1CC[C@H]2[C@@](C)(Cl)[C@@H](OC(=O)Nc3ccc(OC(F)(F)F)cc3)O[C@@H]3O[C@@]4(C)CC[C@@H]1[C@]32OO4`, in data set [1], the inhibition at 10 µM was less than 6%. For the same compound, in the data set on CD4+ve Th, the inhibition entry was “Active”.

(Values after ChEMBL document CHEMBL5143635, “Synthesis and biological evaluation of artemisinin derivatives as potential MS agents” (Bioorg Med Chem Lett, 2022).)
